Results: ChEMBL document CHEMBL1129132, “8-amino-6-(arylsulphonyl)-5-nitroquinolines: novel nonpeptide neuropeptide Y1 receptor antagonists” (Bioorg Med Chem Lett, 1996)

How the values were obtained:
[1] = target: T1, Neuropeptide Y receptor type 1 (Homo sapiens, UniProt P25929); test: Compound was tested for binding affinity against neuropeptide Y1 (NPY1) receptor from SK-N-MC membranes using [125I]PYY as radioligand
T1 sequence (P25929 whole entry): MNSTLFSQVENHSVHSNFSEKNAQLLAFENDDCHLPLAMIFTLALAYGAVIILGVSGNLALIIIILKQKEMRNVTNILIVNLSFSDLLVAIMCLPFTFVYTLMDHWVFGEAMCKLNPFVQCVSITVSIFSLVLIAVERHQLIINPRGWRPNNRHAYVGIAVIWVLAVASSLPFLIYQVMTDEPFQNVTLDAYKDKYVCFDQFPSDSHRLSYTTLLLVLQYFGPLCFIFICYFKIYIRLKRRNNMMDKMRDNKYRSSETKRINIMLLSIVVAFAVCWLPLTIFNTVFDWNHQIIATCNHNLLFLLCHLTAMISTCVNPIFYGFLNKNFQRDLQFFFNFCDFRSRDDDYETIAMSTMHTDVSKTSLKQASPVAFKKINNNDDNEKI

[2] = target: T2, Neuropeptide Y receptor type 2 (Rattus norvegicus, UniProt Q9ERC0); test: Compound was tested for binding affinity against neuropeptide Y2 (NPY2) receptor from rat hippocampi.; type: tissue-based, Hippocampus
T2 sequence (Q9ERC0 whole entry): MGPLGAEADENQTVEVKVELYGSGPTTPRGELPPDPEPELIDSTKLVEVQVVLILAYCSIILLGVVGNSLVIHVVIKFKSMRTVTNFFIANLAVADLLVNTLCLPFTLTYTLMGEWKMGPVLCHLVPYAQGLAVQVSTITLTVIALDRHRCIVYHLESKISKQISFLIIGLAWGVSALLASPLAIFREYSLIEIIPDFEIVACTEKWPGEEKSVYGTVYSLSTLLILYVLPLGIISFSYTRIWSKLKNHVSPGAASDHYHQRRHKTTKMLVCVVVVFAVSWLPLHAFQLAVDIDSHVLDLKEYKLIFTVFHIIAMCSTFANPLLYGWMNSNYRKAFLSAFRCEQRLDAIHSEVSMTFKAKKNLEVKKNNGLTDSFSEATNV

Ki [1] | Ki [2] | IC50 [2] | Structure (SMILES)
> 10 µM |  |  | Nc1ccc(S(=O)(=O)c2cc(N)c3ncccc3c2N)cc1
> 10 µM |  |  | Nc1ccc(S(=O)(=O)c2ccc3ncccc3c2[N+](=O)[O-])cc1
0.282 µM | > 10 µM |  | Nc1ccc(S(=O)(=O)c2cc(N)c3ncccc3c2[N+](=O)[O-])cc1
1.25 µM |  |  | Nc1ccc([S+]([O-])c2cc(N)c3ncccc3c2[N+](=O)[O-])cc1 (configuration not stated)
> 10 µM |  |  | Nc1ccc(S(=O)(=O)c2cc(N)c3ncccc3c2)cc1
> 10 µM |  |  | CNc1cc(S(=O)(=O)c2ccccc2)c([N+](=O)[O-])c2cccnc12
> 10 µM |  |  | Nc1ccc(Sc2cc(N)c3ncccc3c2[N+](=O)[O-])cc1
> 10 µM |  |  | Cc1cc(S(=O)(=O)c2ccccc2)c([N+](=O)[O-])c2cccnc12
> 10 µM |  |  | CS(=O)(=O)c1cc(N)c2ncccc2c1[N+](=O)[O-]
 |  | 10 µM | CC(C)c1ccccc1S(=O)(=O)c1cc(N)c2ncccc2c1[N+](=O)[O-]
> 10 µM |  |  | Nc1cc(NS(=O)(=O)c2ccccc2)c([N+](=O)[O-])c2cccnc12
